SMILES strings stand for the structures.

The test system of assay [1] is naïve CD4 crt^−/− and crt^+/+ T cells. As to the kind of experiment: CD62L re-expression after activation with plate bound CD3 and CD28 antibodies (FACS). Type of assay: cell-based, mouse. As to conditions: crt^−/− and wild-type cells, 38 h. Here is the method:
FIG. 3: Mitochondrial Ca^2+ uptake during T cell activation leads to ATP synthesis and release. • a) ATP synthesis at different time points after T cell activation with CD3 antibodies in crt^−/− and crt^+/+ sorted naïve CD4^+ T cells (see Example 2). • b) ATP production upon T cell activation in the absence (control) or presence of the ATP synthetase inhibitor oligomycin. • c) FACS profile of CD62L expression on the surface of sorted naïve CD4 crt^−/− and crt^+/+ T cells at 38 h following activation with plate bound CD3 and CD28 antibodies. The same experiment was performed in the presence of oATP. • d) Naïve CD4^+ T cells were stained with the nucleotide binding compound quinacrine (see Example 2). The homogenous cytosolic staining indicates the absence of secretory vesicles containing ATP. • e) Subcellular fractionation of non-stimulated and activated naïve T cells on a continuous sucrose gradient (see Example 2). ATP was detected only in fractions containing also the cytosolic protein Zap-70 and not in those characterized by the small vesicular marker cellubrevin.
This shedding is thought to be inhibited by the P2X receptor antagonist oATP (Gu et al., Blood 92:946-951 (1998)). In vitro T cell activation of CD4 naïve T cells causes shedding of CD62L, which is progressively re-expressed following TCR triggering.

Another assay relates to naive CD4 T cells. As to the kind of experiment: T cell proliferation by CFSE dilution, plate-bound CD3 and CD28 mAbs. It counts as cell-based, mouse.
A further assay has as its system Egr2 and Egr3. As to the kind of experiment: Real-time PCR of anergy related genes Egr2 and Egr3. Type of assay: cell-based, mouse. To be noted: 2 h and 16 h after T cell activation. The source says:
NFAT nuclear translocation without concomitant MAPK activation, which can be obtained by ionomycin treatment, implements a transcriptional program leading to T cell anergy (Macian et al., Cell 109:719-731 (2002)). […] Then, we hypothesized that activation of T cells in the presence of oATP could induce T cell anergy. […] The effect of oATP was not due to altered turn-over of the TCR/CD3 complex at the cell surface, as determined by FACS analysis (data not shown).
(In general: Quantitative PCR measures a nucleic acid by following its amplification.)

The test system of assay [2] is T cells stimulated by anti-CD3 under Th17 skewing conditions. As to the kind of experiment: Th17 skewing conditions (TGFβ and IL-6), Foxp3 and RORγT expression. It counts as cell-based. As for the experimental part:
Treatment with oATP at 100 μM inhibits Th17 differentiation and promotes Foxp3 expression. […] The absolute number of CD4^+CD25^high cells expressing Foxp3 by FACS analysis was increased (FIG. 12B). Moreover, the de-differentiation of sorted CD4^+CD25^high natural Treg cells to the Th17 lineage following stimulation (Koenen et al., Blood 112(6):2340-2352 (2008)) was prevented by oATP at 100 μM (FIG. 12C).

A further assay deals with mouse model of IBD. As to the kind of experiment: IBD model with insufficient number of adoptively transferred Treg cells. It counts as in vivo.
For the next assay, the system named is NZB/NZW F1 mice. As to the kind of experiment: Systemic lupus erythematosus / glomerulonephritis model. Type of assay: in vivo, mouse. As for the experimental part: Graph representing protein concentration in urine from NZB/NZW Fi mice treated either with PBS (control) or oATP. 25-week -old female mice received either PBS or oATP intravenously (3 mM in 100 μl, five days treatment, 2 days break) for 6 weeks (see Example 14). Ten animals received PBS and ten animals received oATP.
Twenty-five week-old NZB/NZW F1 female mice were injected intravenously with either PBS or oATP (3 mM in 100 μl, five days treatment, 2 days break) for six weeks and examined for proteinuria (upper panel) and other indicated parameters (lower panels) (see Example 14). **: P<0.01; ***: P<0.001.
Effector/memory (CD44^+CD62L^−) CD4^+ cells recovered from the spleen of 25 week-old NZB/NZW F1 female mice treated either with PBS or oATP (upper panel); IFN-γ and IL-4 secretion by CD4^+ effector/memory T cells stimulated with plate bound anti-CD3 and anti-CD28 antibodies for 48 h detected by ELISA (lower panels) (see Example 14). **: P<0.01; ***: P<0.001.
Systemic lupus erythematosus (SLE), or its mouse model NZB/NZW F1 (Andrews et al., J. Exp. Med. 148:1198-1215 (1978)), is a chronic inflammatory disease characterized by polyclonal B cell activation with subsequent hypergammaglobulinemia and organ injury caused by immune complex deposits. Because CD4^+ T cells play a crucial role in the onset and propagation of the disease, we analyzed whether oATP treatment might ameliorate disease symptoms. Female NZB/NZW F1 mice at 25 weeks old (when most animals display proteinuria) received either PBS or oATP intravenously (3 mM in 100 μl, five days treatment, 2 days break) for 6 weeks. The proteinuria values were measured before the first treatment and at regular intervals after three weeks of oATP administration. […] Restimulation of sorted effector/memory T cells led to lower levels of IL-4 and IFNγ secretion in cells derived from oATP treated animals (18. 16, lower panels).

[3] abbreviates: Th17 skewing conditions, oATP 100 μM.

As to `Nc1ncnc2c1ncn2[C@@H](C=O)O[C@@H](C=O)COP(=O)(O)OP(=O)(O)OP(=O)(O)O` [oATP], in assay [1], the “CD62L re-expression after activation” value was “enhanced and identical re-expression efficiency”. For the same compound, the “T cell proliferation (CFSE dilution)” value in the assay on naive CD4 T cells is listed as “almost completely inhibited”. Also, the “Egr2 and Egr3 transcripts” value in the assay with Egr2 and Egr3 is on record as “significant upregulation”. The “absolute number of CD4^+CD25^high cells expressing Foxp3 (FACS)” value in assay [2] (Th17 skewing conditions) is recorded as “increased”. Moreover, in assay [2] (setting [3]), the “expression of Foxp3 (quantitative RT-PCR)” value is on record as “gradually increased” and the “expression of RORγT (quantitative RT-PCR)” value is on record as “suppressing”. Moreover, in assay [2] (oATP 100 μM), the Th17 differentiation entry is “inhibits” and the “de-differentiation of sorted CD4^+CD25^high natural Treg cells to the Th17 lineage” value is “prevented”. Also, the “Foxp3 expression in Treg cells” value in the assay on mouse model of IBD (day 28, daily 100 μl of 3 mM oATP i.v. from day 14) is “increased”. Further, in the assay with mouse model of IBD (mouse, in vivo), the bowel inflammation result was “no signs of bowel inflammation”; the “effector/memory T cells in mesenteric lymph nodes” value is on record as “reduced counts”; the “ratio of Treg/EM cells in mesenteric lymph nodes” value is reported as “not significantly changed”; the “spleen and mesenteric lymph nodes size” value was “no increase”. In the assay with NZB/NZW F1 mice (3 mM in 100 μl i.v., five days treatment, 2 days break, 6 weeks), the proteinuria levels entry is listed as “remained similar to pre-treatment levels”. Besides, in the assay with NZB/NZW F1 mice (anti-CD3 and anti-CD28, 48 h, ELISA), the “IL-4 and IFNγ secretion of restimulated sorted effector/memory T cells” value is “lower levels”. In the assay with NZB/NZW F1 mice (mouse, in vivo), the “Histopathological scoring of kidneys: glomerular proliferation, lymphomonocytic infiltration and immune complex deposition” value was “significant reduction”; the “number of effector/memory T cells in spleen and lymph nodes” value is listed as “significantly reduced”.

The values above are taken from patent US20110076258A1, “METHODS OF MODULATING T CELL- DEPENDENT IMMUNE RESPONSES” (Converge Biotech Inc., priority 2008, published 2011).
